According to patent publication US7790742B2, “Substituted 4-phenyltetrahydroisoquinolines, pharmaceutical compositions thereof, methods for their preparation and therapeutic use” (Sanofi-Aventis Deutschland GmbH, priority 2004, dated 2010):

Tests used:
NHE3 of the rat = NHE3 of the rat (Rattus norvegicus, UniProt P26433); details: read-out: half-maximum inhibitory concentration (IC50); cited from earlier work
NHE3 [1] = target: T1, NHE3 (Homo sapiens, UniProt P48764); test: Determination of the NHE-inhibitory effect (recovery of intracellular pH after acidification, BCECF); type: cell-based; details: BCECF fluorescence, NHE subtype not given
T1 construct: host or cells: cells, not specified
T1 sequence (P48764 26-834): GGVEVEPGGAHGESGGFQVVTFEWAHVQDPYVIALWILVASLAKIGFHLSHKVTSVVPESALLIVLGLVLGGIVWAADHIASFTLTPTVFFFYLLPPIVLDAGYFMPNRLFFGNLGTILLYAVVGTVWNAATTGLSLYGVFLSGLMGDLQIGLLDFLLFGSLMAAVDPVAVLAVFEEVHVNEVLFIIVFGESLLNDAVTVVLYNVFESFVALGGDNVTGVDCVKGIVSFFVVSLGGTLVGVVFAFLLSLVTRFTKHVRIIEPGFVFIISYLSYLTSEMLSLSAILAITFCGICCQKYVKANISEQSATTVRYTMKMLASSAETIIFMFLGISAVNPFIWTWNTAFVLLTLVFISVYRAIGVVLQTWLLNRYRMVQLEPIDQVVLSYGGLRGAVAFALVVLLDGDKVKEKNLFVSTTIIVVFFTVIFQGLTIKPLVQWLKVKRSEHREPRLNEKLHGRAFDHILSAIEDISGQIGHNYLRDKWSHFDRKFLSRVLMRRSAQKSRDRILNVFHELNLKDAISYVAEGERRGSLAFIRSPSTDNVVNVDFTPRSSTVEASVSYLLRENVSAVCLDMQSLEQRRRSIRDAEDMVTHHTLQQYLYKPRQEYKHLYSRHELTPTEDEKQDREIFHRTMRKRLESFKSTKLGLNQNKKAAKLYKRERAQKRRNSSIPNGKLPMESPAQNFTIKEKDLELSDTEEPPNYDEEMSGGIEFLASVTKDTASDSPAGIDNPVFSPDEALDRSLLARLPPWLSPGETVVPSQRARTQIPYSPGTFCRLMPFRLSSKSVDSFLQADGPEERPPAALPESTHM
Procedure: [drawing 82] was obtained in analogy to the method indicated in Example 16 from 6,8-dichloro-2-methyl-4(R)-[2N-(2-ethoxy-3,4-dioxocyclobuten-1-yl)amino]-phenyl-1,2,3,4-tetrahydroisoquinoline (Example 6) and methylamine. Crystalline solid, m.p. 265° C. Pharmacological Data: Assay: Determination of the NHE-Inhibitory Effect
In this assay, the recovery of the intracellular pH (pHj) after an acidification which occurs even under bicarbonate-free conditions with functional NHE was determined. To this end, the pHj was determined using the pH-sensitive fluorescent dye BCECF (calbiochem, the precursor BCECF-AM was employed). The cells were initially loaded with BCECF. The BCECF fluorescence was determined in a ratio fluorescence spectrometer (Photon Technology International, South Brunswick, N.J., USA) with excitation wavelengths of 505 and 440 nm and an emission wavelength of 535 nm and converted into the pHj using calibration plots. The cells had been incubated in NH4Cl buffer (pH 7.4) for the BCECF loading (NH4Cl buffer: 115 mM NaCl, 20 mM NH4Cl, 5 mM KCl, 1 mM CaCl2, 1 mM MgSO4, 20 mM Hepes, 5 mM glucose, 1 mg/ml BSA; a pH of 7.4 was adjusted with 1 M NaOH). The intracellular acidification was induced by adding 975 μl of an NH4Cl-free buffer (see below) to 25 μl aliquots of the cells incubated in NH4Cl buffer. The subsequent rate of pH recovery was recorded for two minutes with NHE1, five minutes with NHE2 and three minutes with NHE3. To calculate the inhibitory power of the tested substances, the cells were initially investigated in buffers with which there was complete or absolutely no pH recovery. For complete pH recovery (100%), the cells were incubated in Na^+-containing buffer (133.8 mM NaCl, 4.7 mM KCl, 1.25 mM CaCl2, 1.25 mM MgCl2, 0.97 mM Na2HPO4, 0.23 mM NaH2PO4, 5 mM Hepes, 5 mM glucose, a pH of 7.0 was adjusted with 1 M NaOH). To determine the 0% value, the cells were incubated in an Na^+-free buffer (133.8 mM choline chloride, 4.7 mM KCl, 1.25 mM CaCl2, 1.25 mM MgCl2, 0.97 mM K2HPO4, 0.23 mM KH2PO4, 5 mM Hepes, 5 mM glucose, a pH of 7.0 was adjusted with 1 M NaOH). The substances to be tested were made up in the Na^+-containing buffer. The recovery of the intracellular pH at each tested concentration of a substance was expressed as a percentage of the maximum recovery. The IC50 of the respective substance for the individual NHE subtypes was calculated from the percentages of pH recovery using the Sigma Plot program.

NHE3 [2] = target: T1, NHE3; details: indirect mechanism; cited from earlier work
NHE1 = NHE1 (Homo sapiens, UniProt P19634); test: Tiamenidine inhibitory action on NHE subtypes: NHE1; type: cell-based; details: therapeutically utilizable concentration range
Sequence of NHE1 (P19634 whole entry, species assumed): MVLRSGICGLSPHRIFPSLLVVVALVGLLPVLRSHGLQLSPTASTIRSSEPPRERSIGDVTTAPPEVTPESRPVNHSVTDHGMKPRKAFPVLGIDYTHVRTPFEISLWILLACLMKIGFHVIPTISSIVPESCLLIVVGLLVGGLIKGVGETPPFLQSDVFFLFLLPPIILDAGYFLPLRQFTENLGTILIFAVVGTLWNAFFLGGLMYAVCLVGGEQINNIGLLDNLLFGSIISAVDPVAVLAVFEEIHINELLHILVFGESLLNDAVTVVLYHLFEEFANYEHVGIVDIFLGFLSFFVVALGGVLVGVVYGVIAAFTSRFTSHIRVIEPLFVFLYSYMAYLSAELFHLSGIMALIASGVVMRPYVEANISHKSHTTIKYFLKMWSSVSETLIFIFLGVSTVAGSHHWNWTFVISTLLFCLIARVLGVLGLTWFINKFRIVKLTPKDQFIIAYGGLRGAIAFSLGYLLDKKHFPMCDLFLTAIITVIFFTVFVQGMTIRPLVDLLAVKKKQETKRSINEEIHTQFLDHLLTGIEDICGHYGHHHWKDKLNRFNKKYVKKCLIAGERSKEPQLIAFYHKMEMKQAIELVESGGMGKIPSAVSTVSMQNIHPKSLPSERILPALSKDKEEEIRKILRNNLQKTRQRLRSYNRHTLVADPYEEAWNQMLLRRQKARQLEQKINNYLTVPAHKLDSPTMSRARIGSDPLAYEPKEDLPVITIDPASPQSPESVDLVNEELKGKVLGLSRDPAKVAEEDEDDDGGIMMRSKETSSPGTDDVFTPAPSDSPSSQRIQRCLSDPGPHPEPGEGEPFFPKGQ
Excerpt: (§1) Compounds which are similar to clonidine but have a thiophene instead of the phenyl ring are disclosed in DE1941761. The structures of formula I disclosed and claimed herein differ from existing compounds by the fusing of a thieno-substituent to the imidazole moiety of the formula I or II. This distinction allows the above-described clonidine-like undesired cardiovascular effects mediated by alpha-adrenoreceptor action to be eliminated. […] The application WO03053434 proposes NHE3 inhibitors of the imidazoline type, the patent application WO 03101984 of the thiophene type and the application DE10304374 of the imidazole type.

NHE2 = target: T2, NHE2 (Homo sapiens, UniProt Q9UBY0); test: Tiamenidine inhibitory action on NHE subtypes: NHE2; type: cell-based; details: therapeutically utilizable concentration range
T2 sequence (Q9UBY0 1-812): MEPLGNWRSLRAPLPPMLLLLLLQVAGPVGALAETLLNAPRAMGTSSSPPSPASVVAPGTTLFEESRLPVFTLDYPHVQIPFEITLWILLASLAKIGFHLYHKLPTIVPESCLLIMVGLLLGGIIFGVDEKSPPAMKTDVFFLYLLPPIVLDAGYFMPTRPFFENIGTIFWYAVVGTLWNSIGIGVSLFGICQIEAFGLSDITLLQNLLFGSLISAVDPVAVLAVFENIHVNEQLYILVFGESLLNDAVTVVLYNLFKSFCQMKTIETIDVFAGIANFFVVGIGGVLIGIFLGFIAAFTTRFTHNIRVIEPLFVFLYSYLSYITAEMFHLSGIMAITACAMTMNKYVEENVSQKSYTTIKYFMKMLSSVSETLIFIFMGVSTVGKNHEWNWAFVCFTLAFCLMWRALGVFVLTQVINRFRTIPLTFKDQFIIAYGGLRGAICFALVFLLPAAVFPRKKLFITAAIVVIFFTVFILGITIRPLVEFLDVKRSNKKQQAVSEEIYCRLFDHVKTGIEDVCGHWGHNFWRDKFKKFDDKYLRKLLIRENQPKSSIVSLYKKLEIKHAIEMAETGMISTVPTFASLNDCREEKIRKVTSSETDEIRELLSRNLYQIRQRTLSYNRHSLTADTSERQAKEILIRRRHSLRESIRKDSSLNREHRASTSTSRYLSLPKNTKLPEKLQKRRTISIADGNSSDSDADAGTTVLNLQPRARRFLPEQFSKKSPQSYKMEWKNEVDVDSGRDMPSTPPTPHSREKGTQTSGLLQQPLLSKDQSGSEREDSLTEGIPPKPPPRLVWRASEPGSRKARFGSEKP
Excerpt: as §1

NHE3 [3] = target: T1, NHE3; test: Tiamenidine inhibitory action on NHE subtypes: NHE3; type: cell-based; details: therapeutically utilizable concentration range
Excerpt: as §1

NHE5 = target: T3, NHE5 (Homo sapiens, UniProt Q14940); test: Tiamenidine inhibitory action on NHE subtypes: NHE5; type: cell-based; details: therapeutically utilizable concentration range
T3 sequence (Q14940 1-896): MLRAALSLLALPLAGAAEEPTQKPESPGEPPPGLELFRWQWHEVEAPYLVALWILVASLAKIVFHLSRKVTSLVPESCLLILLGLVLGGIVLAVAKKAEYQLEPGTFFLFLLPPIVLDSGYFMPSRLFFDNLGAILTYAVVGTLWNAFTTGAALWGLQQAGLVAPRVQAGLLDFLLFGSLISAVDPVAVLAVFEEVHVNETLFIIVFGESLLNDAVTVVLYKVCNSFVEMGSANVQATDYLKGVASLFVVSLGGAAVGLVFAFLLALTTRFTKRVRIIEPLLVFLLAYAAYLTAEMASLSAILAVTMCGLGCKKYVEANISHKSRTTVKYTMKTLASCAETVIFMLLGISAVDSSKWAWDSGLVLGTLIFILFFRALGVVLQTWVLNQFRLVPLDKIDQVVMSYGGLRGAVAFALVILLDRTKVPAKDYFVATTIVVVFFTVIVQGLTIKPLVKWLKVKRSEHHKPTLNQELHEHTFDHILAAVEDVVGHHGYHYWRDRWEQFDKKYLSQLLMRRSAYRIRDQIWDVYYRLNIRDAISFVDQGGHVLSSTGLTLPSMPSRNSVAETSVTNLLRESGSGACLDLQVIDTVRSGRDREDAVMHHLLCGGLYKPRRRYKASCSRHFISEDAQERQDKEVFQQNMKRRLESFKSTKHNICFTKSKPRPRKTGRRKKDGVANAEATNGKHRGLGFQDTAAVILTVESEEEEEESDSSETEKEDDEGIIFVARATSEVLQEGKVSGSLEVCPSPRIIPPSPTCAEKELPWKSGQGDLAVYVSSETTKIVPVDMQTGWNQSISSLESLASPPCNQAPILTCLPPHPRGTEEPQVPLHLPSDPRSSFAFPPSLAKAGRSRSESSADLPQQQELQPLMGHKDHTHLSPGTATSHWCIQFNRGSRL
Excerpt: as §1

Sequence of NHE3 of the rat (P26433 29-831): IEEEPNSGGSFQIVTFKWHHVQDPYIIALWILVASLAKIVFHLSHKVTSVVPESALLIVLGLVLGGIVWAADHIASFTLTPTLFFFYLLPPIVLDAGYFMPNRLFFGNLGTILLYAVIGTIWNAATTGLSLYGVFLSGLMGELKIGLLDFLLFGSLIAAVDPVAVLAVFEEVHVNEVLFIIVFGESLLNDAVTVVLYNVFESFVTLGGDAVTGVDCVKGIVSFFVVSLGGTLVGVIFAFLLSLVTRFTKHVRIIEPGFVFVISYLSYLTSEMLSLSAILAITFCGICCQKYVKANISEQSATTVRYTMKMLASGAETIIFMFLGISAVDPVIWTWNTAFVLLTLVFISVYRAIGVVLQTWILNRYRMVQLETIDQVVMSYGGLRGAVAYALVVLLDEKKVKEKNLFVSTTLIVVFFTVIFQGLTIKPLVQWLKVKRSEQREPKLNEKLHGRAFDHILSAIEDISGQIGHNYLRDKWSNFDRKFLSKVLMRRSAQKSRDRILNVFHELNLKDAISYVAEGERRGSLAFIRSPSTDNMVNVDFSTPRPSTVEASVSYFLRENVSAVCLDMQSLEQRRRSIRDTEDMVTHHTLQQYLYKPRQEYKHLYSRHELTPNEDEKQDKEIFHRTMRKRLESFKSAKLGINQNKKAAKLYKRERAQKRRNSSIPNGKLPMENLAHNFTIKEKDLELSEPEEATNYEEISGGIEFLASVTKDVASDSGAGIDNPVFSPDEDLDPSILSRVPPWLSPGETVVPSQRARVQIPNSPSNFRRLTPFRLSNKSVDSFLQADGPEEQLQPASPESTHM

Compound	IC50 (NHE3 [1]) [nM]	melting point [°C]	also measured
Clc1cccc(Cl)c1N=C1NCCN1 [Clonidine]	–	–	IC50 (NHE3 of the rat): 620000 nM
CCCN(C)c1c(Nc2ccccc2[C@@H]2CN(C)Cc3c(Cl)cc(Cl)cc32)c(=O)c1=O [Example 37]	850	236 to 240	–
CN1Cc2c(Cl)cc(Cl)cc2C(c2ccc(Nc3c(N(C)Cc4ccccc4)c(=O)c3=O)cc2)C1 (stereo not drawn) [Example 38]	8000	158 to 162	–
CCN(CC)c1c(Nc2ccccc2[C@@H]2CN(C)Cc3c(Cl)cc(Cl)cc32)c(=O)c1=O [Example 39, 6,8-dichloro-2-methyl-4(R)-[2N-(2-diethylamino-3,4-dioxocyclobuten-1-yl)amino]phenyl-1,2,3,4-tetrahydroisoquinoline]	1520	246 to 250	–
CCCN(CCC)c1c(Nc2ccccc2[C@@H]2CN(C)Cc3c(Cl)cc(Cl)cc32)c(=O)c1=O [Example 40]	240	190 to 194	–
CN1Cc2c(Cl)cc(Cl)cc2[C@H](c2ccccc2Nc2c(N3CCCC3)c(=O)c2=O)C1 [Example 41, 6,8-dichloro-2-methyl-4(R)-[2N-(2-N-pyrrolidino-3,4-dioxocyclobuten-1-yl)amino]phenyl-1,2,3,4-tetrahydroisoquinoline]	110	220 to 224	–
CC(C)N(C)c1c(Nc2ccccc2[C@@H]2CN(C)Cc3c(Cl)cc(Cl)cc32)c(=O)c1=O [Example 42]	150	210 to 214	–
CC(C)[C@@H](CC[C@@H](C)[C@H]1CC[C@H]2[C@@H]3[C@H](O)C[C@H]4C[C@@H](NCCCNCCCCN)CC[C@]4(C)[C@H]3CC[C@]12C)OS(=O)(=O)O [squalamine]	–	–	time to maximum strength of action (NHE3 [2]): after one hour
Cc1csc(Cl)c1NC1=NCCN1 [tiamenidine]	–	–	inhibitory action on NHE1 (NHE1): no relevant inhibitory actions; inhibitory action on NHE2 (NHE2): no relevant inhibitory actions; inhibitory action on NHE3 (NHE3 [3]): no relevant inhibitory actions; inhibitory action on NHE5 (NHE5): no relevant inhibitory actions
